Laboratory results: the OPERA property sets (Mansouri et al. 2018)

Conditions: not given

First: CCCCCC#CC(=O)O
Second: CCCC#N
The melting point of the first is higher: 4 °C for the first, -112 °C for the second.

Going from `CC(CCc1ccccc1)NC(C)C(O)c1cc(I)c(O)c(I)c1` (stereo not drawn) to `Oc1c(I)cc(I)cc1I`, the melting point falls from 212 °C to 160 °C.

Compared with `CC(C)Nc1nc(N)nc(Cl)n1`, `Cc1ccc2ccc(C)cc2c1` is lower in melting point: 133 °C for the first, 97 °C for the second.

First: C=C1C/C(=C/C)C(=O)O[C@@H]2CCN3CC=C(COC(=O)[C@]1(C)O)[C@H]23
Second: C=C1C(=O)O[C@@H]2C[C@@]3(C)CCC[C@H](C)C3=C[C@H]12
The melting point of the first is higher: 218 °C for the first, 76 °C for the second.

Going from `CN(C)C(=O)c1ccccc1` to `CC(C)(O)c1ccccc1`, the melting point falls from 44 °C to 36 °C.

Compared with `CC(C)[C@@H](C)/C=C/[C@@H](C)[C@H]1CC[C@H]2C3=CC=C4C[C@@H](O)CC[C@]4(C)[C@H]3CC[C@]12C`, `O=C1CCC[C@@H]2[C@H]3CCCN4CCC[C@@H](CN12)[C@@H]34` (racemic) is lower in melting point: 127 °C for the first, 76 °C for the second.

Going from `CCC1=C(C[C@@H]2NCCc3cc(OC)c(OC)cc32)C[C@H]2c3cc(OC)c(OC)cc3CCN2C1` to `Cc1ccc2cc3c(ccc4ccccc43)cc2c1`, the melting point rises from 95 °C to 152 °C.

First: C=C(Cl)Cl
Second: CC(C)(N)C(=O)O
The melting point of the first is lower: -122 °C for the first, 335 °C for the second.

Compared with `CN(C)N`, `CC(=O)NC(C)=O` is higher in melting point: -58 °C for the first, 79 °C for the second.

Compared with `Cc1ccc(/C(=C\CN2CCCC2)c2ccccn2)cc1`, `O=C(Nc1ccccc1)c1cc2ccccc2cc1O` is higher in melting point: 60 °C for the first, 248 °C for the second.

Compared with `C1CCSSC1`, `CC1CC(C)(C)CC(OOC(C)(C)C)(OOC(C)(C)C)C1` (stereo not drawn) is lower in melting point: 32.5 °C for the first, -30 °C for the second.

Going from `CCS` to `CCCBr`, the melting point rises from -148 °C to -110 °C.

Compared with `CCc1cccc(C)c1`, `NCc1cccnc1` is higher in melting point: -95.5 °C for the first, -21.1 °C for the second.

Compared with `O=[N+]([O-])c1ccc(C=NO)o1`, `CCN(CC)c1ccc(N=O)cc1` is lower in melting point: 163 °C for the first, 87.5 °C for the second.

First: O=C(C(=O)c1ccco1)c1ccco1
Second: CC(Oc1ccc(Oc2ncc(C(F)(F)F)cc2Cl)cc1)C(=O)O (stereo not drawn)
The melting point of the first is higher: 164 °C for the first, 108 °C for the second.

Going from `COc1cc(C=CC=O)ccc1O` to `Cc1ccc(C)s1`, the melting point falls from 84 °C to -62.6 °C.

`Cn1c(=O)c2c(ncn2CCOC(=O)c2cccnc2)n(C)c1=O` showed a melting point of 152 °C.

First: CC(C)(Br)[N+](=O)[O-]
Second: CC(C)(C)C(=O)Cl
The boiling point of the first is higher: 153 °C for the first, 107 °C for the second.

First: CCCC#N
Second: CCCBr
The boiling point of the first is higher: 118 °C for the first, 71.1 °C for the second.

Going from `C=COCCCCCC` to `CCN(CC)CCN(CC)CC`, the boiling point rises from 143 °C to 192 °C.

First: CC(=O)OC(C)(C)C
Second: CC(=O)NC(C)=O
The boiling point of the first is lower: 97 °C for the first, 224 °C for the second.

First: CCC(C#N)CC
Second: CCC(CC)CCl
The boiling point of the first is higher: 146 °C for the first, 126 °C for the second.

Going from `C=C(Cl)Cl` to `CC=C(C)Br`, the boiling point rises from 31.6 °C to 99.8 °C.

Going from `C=C1C(=O)O[C@@H]2C[C@@]3(C)CCC[C@H](C)C3=C[C@H]12` to `CCC1CCc2ccccc21` (stereo not drawn), the boiling point falls from 275 °C to 212 °C.

Compared with `CN(C)N`, `CCC=C(C)CO` is higher in boiling point: 63.9 °C for the first, 168 °C for the second.

Compared with `CCS`, `CCOC(=O)CN` is higher in boiling point: 35.1 °C for the first, 149 °C for the second.

Going from `CCN1CCCCC1` to `CCc1cnccn1`, the boiling point rises from 131 °C to 152 °C.

Going from `CCc1cccc(C)c1` to `Cc1ccc2ccc(C)cc2c1`, the boiling point rises from 161 °C to 265 °C.

Compared with `CC(C)(O)c1ccccc1`, `Cc1ccc(C)s1` is lower in boiling point: 202 °C for the first, 136 °C for the second.

Compared with `FC(F)(F)C(F)(F)C(F)(F)C(F)(F)C(F)(F)C(F)(F)Br`, `NCc1cccnc1` is higher in boiling point: 98 °C for the first, 226 °C for the second.

Going from `CCCC#N` to `CCS`, the log10 Henry constant (atm·m³/mol) rises from -4.28 to -2.34.

First: C=C(Cl)Cl
Second: CCc1cnccn1
The log10 Henry constant (atm·m³/mol) of the first is higher: -1.58 for the first, -5.61 for the second.

Going from `CCCC#N` to `Clc1cc2c(Cl)ccc(Cl)c2cc1Cl`, the log10 Koa rises from 3.12 to 8.13.

First: CCCC#N
Second: CCCBr
The log10 vapour pressure (mmHg) of the first is lower: 1.29 for the first, 2.04 for the second.

First: CC(=O)OC(C)(C)C
Second: CC(=O)NC(C)=O
The log10 vapour pressure (mmHg) of the first is higher: 1.67 for the first, -2 for the second.

First: C=C(Cl)Cl
Second: CN(C)N
The log10 vapour pressure (mmHg) of the first is higher: 2.78 for the first, 2.21 for the second.

Compared with `CCS`, `CCc1cccc(C)c1` is lower in log10 vapour pressure (mmHg): 2.72 for the first, 0.483 for the second.

First: Cc1ccc(C)s1
Second: Cc1ccc2ccc(C)cc2c1
The log10 vapour pressure (mmHg) of the first is higher: 0.994 for the first, -2.25 for the second.

First: CN(C)C(=O)c1ccccc1
Second: C=C(Cl)Cl
The log10 Koc (L/kg) of the first is lower: 1.6 for the first, 1.81 for the second.

In the case of `C=C(Cl)Cl`, the ready biodegradability is reported as “not readily biodegradable”.
With `CN(C)N` the ready biodegradability was “not readily biodegradable”.
For `O=C(ON=C1C=CC(=NOC(=O)c2ccccc2)C=C1)c1ccccc1`, the ready biodegradability was “not readily biodegradable”.
With `O=C(Nc1ccccc1)c1cc2ccccc2cc1O` the ready biodegradability was “not readily biodegradable”.
For `CC1CC(C)(C)CC(OOC(C)(C)C)(OOC(C)(C)C)C1` (stereo not drawn), the ready biodegradability was “not readily biodegradable”.

Compound `CCc1cccc(C)c1` has a log10 biodegradation half-life (days) of 0.477.

Same assay, conditions: fish

Going from `C=C(Cl)Cl` to `O=C(Nc1ccccc1)c1cc2ccccc2cc1O`, the log10 BCF falls from 1.11 to 0.81.

Going from `CC1CC(C)(C)CC(OOC(C)(C)C)(OOC(C)(C)C)C1` (stereo not drawn) to `O=C(Nc1ccc2c(O)cc(S(=O)(=O)O)cc2c1)Nc1ccc2c(O)cc(S(=O)(=O)O)cc2c1`, the log10 BCF falls from 3.96 to 0.26.

In the case of `C=C(Cl)Cl`, the log10 biotransformation half-life (days) is reported as -0.72.
